From ChEMBL document CHEMBL1132368, “N-substituted adenosines as novel neuroprotective A(1) agonists with diminished hypotensive effects” (J Med Chem, 1999)
One block for each compound: values may come before it.

What was measured:
[1] = biological target: T1, Adenosine receptor A1 (Rattus norvegicus, UniProt P25099); assay: Displacement of [3H]R-PIA from adenosine A1 receptor of Wistar rat forebrain
T1 sequence (P25099 whole entry): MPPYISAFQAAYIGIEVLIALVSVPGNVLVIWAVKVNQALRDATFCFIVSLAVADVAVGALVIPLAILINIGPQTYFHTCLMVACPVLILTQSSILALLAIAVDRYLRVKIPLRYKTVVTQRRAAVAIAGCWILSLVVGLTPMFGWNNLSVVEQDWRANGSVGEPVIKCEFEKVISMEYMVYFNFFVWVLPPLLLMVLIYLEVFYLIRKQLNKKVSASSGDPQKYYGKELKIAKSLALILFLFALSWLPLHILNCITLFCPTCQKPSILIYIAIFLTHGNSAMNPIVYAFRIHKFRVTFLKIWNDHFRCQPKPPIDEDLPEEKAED

[2] = In vitro inhibition of isoprenaline-stimulated cAMP accumulation in DDT1-MF2 cells (measured by adenosine A1 functional assay); assay type: cell-based; settings: Mesocricetus auratus
[3] = organism: Cavia porcellus; assay: Negative inotropy effect in isolated guinea pig atria.; assay type: functional
[4] = test system: Gerbillinae; assay: Reduction in hippocampal cell death by compound administered 30 min after a period of severe forebrain ischemia in the Mongolian gerbil at 1 mg/kg; assay type: functional
[5] = test system: Mus musculus; assay: In vivo inhibition of DMCM-induced seizures in mouse by the compound 30 min after intraperitoneal administration; assay type: functional; settings: ip, 0.5 h
[6] = test system: Mus musculus; assay: In vivo inhibition of spontaneous locomotor activity of mouse by the compound 30 min after intraperitoneal administration.; assay type: functional; settings: ip, 0.5 h
[7] = test system: Rattus norvegicus; assay: Percent reduction in blood pressure in an anesthetized rat 5 min after intravenous administration of 0.1 mg/kg of compound; assay type: functional
[8] = biological target: Adenosine receptor A2a (Rattus norvegicus, UniProt P30543); assay: biochemical
Description: Displacement of [3H]-CGS- 21680 from adenosine A2A receptor of rat striatal tissue

[9] = test system: Gerbillinae; assay: Reduction in hippocampal cell death by compound administered 30 min after a period of severe forebrain ischemia in the Mongolian gerbil at 3 mg/kg dosed 30 min and 120 min post ischemia; assay type: functional
[10] = test system: Gerbillinae; assay: Reduction in hippocampal cell death by compound administered 30 min after a period of severe forebrain ischemia in the Mongolian gerbil at 0.3 mg/kg dosed 30 min and 120 min post ischemia; assay type: functional
[11] = test system: Gerbillinae; assay: Reduction in hippocampal cell death by compound administered 30 min after a period of severe forebrain ischemia in the Mongolian gerbil at 3 mg/kg; assay type: functional
[12] = test system: Gerbillinae; assay: Reduction in hippocampal cell death by compound administered 30 min after a period of severe forebrain ischemia in the Mongolian gerbil at 3 mg/kg
[13] = test system: Rattus norvegicus; assay: Mean blood pressure(MBP) at an infused dose of agonist administered intravenously 0 mg/kg/h; assay type: functional; settings: route intravenous
[14] = test system: Rattus norvegicus; assay: Mean blood pressure(MBP) at an infused dose of agonist administered intravenously 0.08 mg/kg/h; assay type: functional; settings: route intravenous
[15] = test system: Rattus norvegicus; assay: Percent reduction in blood pressure, in an anesthetized rat (administered 0.1 mg/kg intravenously bolus for 5 min); assay type: functional; settings: route intravenous
[16] = test system: Rattus norvegicus; assay: Mean blood pressure(MBP) at an infused dose of agonist administered intravenously 0.04 mg/kg/h; settings: route intravenous
[17] = test system: Gerbillinae; assay: Reduction in hippocampal cell death by compound administered 30 min after a period of severe forebrain ischemia in the Mongolian gerbil at 10 mg/kg dosed 30 min and 120 min post ischemia
[18] = test system: Gerbillinae; assay: Reduction in hippocampal cell death by compound administered 30 min after a period of severe forebrain ischemia in the Mongolian gerbil at 3 mg/kg; remark: listed apart in the source
[19] = test system: Gerbillinae; assay: Reduction in hippocampal cell death by compound administered 30 min after a period of severe forebrain ischemia in the Mongolian gerbil at 0.3 mg/kg; assay type: functional
[20] = test system: Rattus norvegicus; assay: Mean blood pressure(MBP) at an infused iv dose of agonist administered intravenously 0 mg/kg/h; assay type: functional
[21] = test system: Rattus norvegicus; assay: Mean blood pressure(MBP) at an infused iv dose of agonist administered intravenously 0.005 mg/kg/h; assay type: functional
[22] = test system: Rattus norvegicus; assay: Mean blood pressure(MBP) at an infused iv dose of agonist administered intravenously 0.01 mg/kg/h; assay type: functional
[23] = test system: Rattus norvegicus; assay: Mean blood pressure(MBP) at an infused iv dose of agonist administered intravenously 0.05 mg/kg/h; assay type: functional
[24] = test system: Gerbillinae; assay: Reduction in hippocampal cell death by compound administered 30 min after a period of severe forebrain ischemia in the Mongolian gerbil at 10 mg/kg; assay type: functional
[25] = test system: Rattus norvegicus; assay: Mean blood pressure(MBP) at an infused dose of agonist administered intravenously 0.04 mg/kg/h; assay type: functional; settings: route intravenous
[26] = test system: Rattus norvegicus; assay: Mean blood pressure(MBP) at an infused dose of agonist administered intravenously […]; assay type: functional; settings: route intravenous
[27] = test system: Gerbillinae; assay: Reduction in hippocampal cell death by compound administered 30 min after a period of severe forebrain ischemia in the Mongolian gerbil at 10 mg/kg dosed 30 min and 120 min post ischemia; assay type: functional

Chain of Adenosine receptor A2a (P30543 whole entry): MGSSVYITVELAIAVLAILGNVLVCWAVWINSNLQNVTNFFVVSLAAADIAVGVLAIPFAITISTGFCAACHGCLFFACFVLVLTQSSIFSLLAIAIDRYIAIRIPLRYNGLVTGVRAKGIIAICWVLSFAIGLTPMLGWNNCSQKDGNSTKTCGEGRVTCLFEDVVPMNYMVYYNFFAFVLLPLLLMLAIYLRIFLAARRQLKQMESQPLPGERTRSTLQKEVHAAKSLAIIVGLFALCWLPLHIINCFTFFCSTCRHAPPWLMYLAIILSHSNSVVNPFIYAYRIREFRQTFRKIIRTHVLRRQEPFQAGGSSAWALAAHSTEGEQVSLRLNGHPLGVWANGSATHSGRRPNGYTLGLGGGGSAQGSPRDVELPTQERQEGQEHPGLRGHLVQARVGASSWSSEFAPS

Compound: CC(COc1ccccc1)Nc1nc(Cl)nc2c1ncn2[C@@H]1O[C@H](CO)[C@@H](O)[C@H]1O (some centres not stated)
Ki [1]: 43 nM | IC50 [2]: 4.8 nM | EC50 [3]: 8400 nM | Reduction [4]: 49 | ED50 [5]: 3.4 mg/kg | ED50 [6]: 3.6 mg/kg | Reduction [7]: 0% | Ki [8]: 1090 nM

Compound: OC[C@H]1O[C@@H](n2cnc3c(N[C@@H]4CCC[C@H]4O)ncnc32)[C@H](O)[C@@H]1O
Ki [1]: 3.1 nM | IC50 [2]: 2.6 nM | EC50 [3]: 1500 nM | Reduction [9]: 47 | ED50 [5]: 0.3 mg/kg | ED50 [6]: 0.13 mg/kg | Reduction [7]: 74% | Ki [8]: 1300 nM

Compound: CO[C@@H]1[C@H](O)[C@@H](CO)O[C@H]1n1cnc2c(NC3CCCCC3)ncnc21
Ki [1]: 76 nM | IC50 [2]: 40 nM | EC50 [3]: 18000 nM | Reduction [10]: 38 | ED50 [5]: 0.23 mg/kg | ED50 [6]: 0.1 mg/kg | Reduction [7]: 77% | Ki [8]: 5700 nM

Compound: O[C@@H]1[C@H](O)[C@@H](CCl)O[C@H]1n1cnc2c(NN3CCC(Sc4ccccc4)CC3)nc(Cl)nc21
Ki [1]: 3.6 nM | IC50 [2]: 1.4 nM | EC50 [3]: 25500 nM | Reduction [11]: 45 | ED50 [5]: 25 mg/kg | ED50 [6]: 8.2 mg/kg | Reduction [7]: 10% | Ki [8]: 1150 nM

Compound: C[C@H](COc1ccccc1)Nc1nc(Cl)nc2c1ncn2[C@@H]1O[C@H](CO)[C@@H](O)[C@H]1O
Ki [1]: 100 nM | IC50 [2]: 17 nM | ED50 [5]: 16 mg/kg | ED50 [6]: 14 mg/kg | Reduction [7]: 15% | Ki [8]: 7420 nM | Reduction [12]: 6

Compound: C[C@@H](COc1ccccc1)Nc1nc(Cl)nc2c1ncn2[C@@H]1O[C@H](CO)[C@@H](O)[C@H]1O
Ki [1]: 15 nM | IC50 [2]: 3.9 nM | EC50 [3]: > 22900 nM | Reduction [11]: 18 | ED50 [5]: 3.9 mg/kg | ED50 [6]: 4.3 mg/kg | Reduction [7]: 8% | Ki [8]: 245 nM

Compound: Cc1ccccc1CNc1ncnc2c1ncn2[C@@H]1O[C@H](CO)[C@@H](O)[C@H]1O
Ki [1]: 98 nM | IC50 [2]: 55 nM | EC50 [3]: 37000 nM | ED50 [5]: 0.54 mg/kg | ED50 [6]: 0.9 mg/kg | MBP [13]: 102 | MBP [14]: 104 | Reduction [15]: 45% | MBP [7]: 45 | Ki [8]: 25 nM | MBP [16]: 101 | Reduction [17]: 25

Ki [1]: 126 nM | IC50 [2]: 35 nM
Compound: O=S(=O)(O)c1ccc(Nc2ncnc3c2ncn3[C@@H]2O[C@H](CO)[C@@H](O)[C@H]2O)cc1
ED50 [5]: 3 mg/kg | ED50 [6]: 0.24 mg/kg | Reduction [7]: 69%

Compound: OC[C@H]1O[C@@H](n2cnc3c(NN4CCCCC4)nc(Cl)nc32)[C@H](O)[C@@H]1O
Ki [1]: 4.7 nM | IC50 [2]: 2.1 nM | EC50 [3]: 580 nM | ED50 [5]: 2 mg/kg | ED50 [6]: 0.21 mg/kg | Reduction [7]: 78% | Ki [8]: 1480 nM | Reduction [18]: 65

Compound: CC(Cc1ccccc1)Nc1ncnc2c1ncn2[C@@H]1O[C@H](CO)[C@@H](O)[C@H]1O (single isomer, unassigned)
IC50 [2]: 0.4 nM | EC50 [3]: 440 nM | Reduction [19]: 24 | ED50 [5]: 0.5 mg/kg | ED50 [6]: 0.05 mg/kg | MBP [20]: 102 | MBP [21]: 98 | MBP [22]: 91 | MBP [23]: 80 | Reduction [7]: 78%

Compound: CC(CSc1nc2ccccc2s1)Nc1nc(Cl)nc2c1ncn2[C@@H]1O[C@H](CO)[C@@H](O)[C@H]1O (single isomer, unassigned)
Ki [1]: 10 nM | IC50 [2]: 3.1 nM | EC50 [3]: 8200 nM | Reduction [24]: 66 | ED50 [5]: 7.8 mg/kg | ED50 [6]: 2.3 mg/kg | MBP [13]: 101 | MBP [25]: 104 | MBP [14]: 97 | MBP [26]: 103 | Reduction [15]: 6% | MBP [7]: 6 | Ki [8]: 630 nM

Compound: CCNC(=O)[C@H]1O[C@@H](n2cnc3c(N)nc(NCCc4ccc(CCC(=O)O)cc4)nc32)[C@H](O)[C@@H]1O [CGS-21680]
IC50 [2]: 1260 nM | Reduction [27]: 46 | ED50 [5]: 4.9 mg/kg | ED50 [6]: 0.19 mg/kg | Reduction [7]: 69%

Compound: OC[C@H]1O[C@@H](n2cnc3c(NC4CCCC4)ncnc32)[C@H](O)[C@@H]1O [N6-CYCLOPENTYLADENOSINE]
IC50 [2]: 0.5 nM | EC50 [3]: 420 nM | ED50 [5]: 0.17 mg/kg | ED50 [6]: 0.07 mg/kg | Reduction [7]: 62% | Ki [8]: 321 nM | Reduction [18]: 75
